From US10329273B2, “Tetrazolone-substituted dihydropyridinone MGAT2 inhibitors” (BRISTOL-MYERS SQUIBB COMPANY, priority 2014, dated 2019)

Biological target: human MGAT-2 (Homo sapiens (Human), UniProt Q3SYC2)
Experiment: MGAT LCMS assay
Assay type: biochemical
Details: human MGAT-2 membranes expressed in Sf9 cells; 100 μM 2-oleoylglycerol, 15 μM oleoyl-coenzyme A; read-out: h-MGAT LCMS IC50
Experimental: The MGAT enzyme reactions were performed in Corning FALCON® 96-well polypropylene plates, in a total volume of 60 μL of 50 mM potassium phosphate buffer pH 7.4, containing a final concentration of 100 μM 2-oleoylglycerol, 15 μM oleoyl-coenzyme A and 0.0013 μg/μL human or mouse MGAT-2 or 0.0026 μg/μL rat recombinant MGAT-2 membranes expressed in Sf9 cells. Assay plates were run through a fully automated robotics system and shaken for 5 seconds every minute for a total 10 minutes. The reactions were then quenched with 120 μL of ice cold methanol containing 1 μg/mL 1,2-distearoyl-rac-glycerol as the internal standard. Plates were shaken for 2 minutes and spun down to remove protein precipitation. After the spin, samples were transferred to LC/MS compatible PCR plates. For LC/MS analysis, a ThermoFisher Surveyor pump, utilizing a Waters SYMMETRY® C8, 50×2.1 mm column, was used for the chromatography of enzyme products. The buffer system consists of 0.1% formic acid in water with a mobile phase consisting 0.1% formic acid in methanol. The shallow gradient is 90-100% mobile phase in 0.2 min with a total run time of 2.3 min. […]
The exemplified Examples disclosed below were tested in the MGAT2 in vitro assays described above and were found having MGAT2 inhibitory activity. Table 1 below lists human MGAT2 IC50 values measured for the following examples.

Sequence of human MGAT-2 (Q3SYC2 whole entry): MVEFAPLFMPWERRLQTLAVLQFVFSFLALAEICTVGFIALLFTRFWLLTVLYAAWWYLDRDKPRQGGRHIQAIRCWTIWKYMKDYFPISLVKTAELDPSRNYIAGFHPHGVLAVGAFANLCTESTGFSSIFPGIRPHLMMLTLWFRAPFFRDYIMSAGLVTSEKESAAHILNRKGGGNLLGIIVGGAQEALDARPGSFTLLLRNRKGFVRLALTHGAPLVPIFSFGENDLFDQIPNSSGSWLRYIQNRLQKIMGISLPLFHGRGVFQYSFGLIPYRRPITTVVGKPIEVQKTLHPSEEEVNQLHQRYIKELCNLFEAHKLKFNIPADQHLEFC

- IC50: 5 nM
SMILES: O=C1N[C@@](c2ccc(OCCCC(F)(F)F)cc2F)(C(F)(F)F)CC(c2ccn(CC3CCC3)n2)=C1n1nn[nH]c1=O [Example 16]
